Measured values reported in US10202361B2, “Pyridazinones as herbicides” (E I DU PONT DE NEMOURS AND COMPANY, priority 2014, dated 2019).
Where two headings read alike, the source gives them in different places.

Columns and labels:
Format in all cases: in vivo
[1] = test system: velvetleaf (Abutilon theophrasti); assay: Test A pre-/postemergence greenhouse herbicide test; details: Abutilon theophrasti, 240 h, 0 to 100 scale (0 no effect, 100 complete control), approx. 10 d, read-out: Plant response rating, Velvetleaf; for pest or weed control at 125 g/ha: 125 g ai/ha; for pest or weed control at 500 g/ha: 500 g ai/ha
Outline: (§1)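 Injury was scored visually on a 0 to 100 scale, where 0 meant no effect and 100 complete control, relative to untreated plants after about 10 d in the greenhouse. Preemergence treatment was a directed soil spray on seeded loam–sand; postemergence spray went onto one- to two-leaf plants.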

[2] = test system: barnyardgrass (Echinochloa crus-galli); assay: as above; details: Echinochloa crus-galli, 240 h, 0 to 100 scale (0 no effect, 100 complete control), approx. 10 d, read-out: Plant response rating, Barnyardgrass; for pest or weed control at 125 g/ha: 125 g ai/ha; for pest or weed control at 500 g/ha: 500 g ai/ha
Outline: as §1

[3] = test system: wheat (Triticum aestivum); assay: as above; details: Triticum aestivum, 240 h, 0 to 100 scale (0 no effect, 100 complete control), approx. 10 d, read-out: Plant response rating, Wheat; for plant injury at 125 g/ha: 125 g ai/ha; for plant injury at 500 g/ha: 500 g ai/ha
Outline: as §1

[4] = test system: pigweed (Amaranthus retroflexus); assay: as above; details: Amaranthus retroflexus, 240 h, 0 to 100 scale (0 no effect, 100 complete control), approx. 10 d, read-out: Plant response rating, Pigweed; for pest or weed control at 125 g/ha: 125 g ai/ha; for pest or weed control at 500 g/ha: 500 g ai/ha
Outline: as §1

[5] = test system: crabgrass, Large (large crabgrass, Digitaria sanguinalis); assay: as above; details: Digitaria sanguinalis, 240 h, 0 to 100 scale (0 no effect, 100 complete control), approx. 10 d, read-out: Plant response rating, Crabgrass, Large; for pest or weed control at 125 g/ha: 125 g ai/ha; for pest or weed control at 500 g/ha: 500 g ai/ha
Outline: as §1

[6] = test system: morningglory (Ipomoea spp.); assay: as above; details: Ipomoea, 240 h, 0 to 100 scale (0 no effect, 100 complete control), approx. 10 d, read-out: Plant response rating, Morningglory; for pest or weed control at 125 g/ha: 125 g ai/ha; for pest or weed control at 500 g/ha: 500 g ai/ha
Outline: as §1

[7] = test system: foxtail, giant (giant foxtail, Setaria faberii); assay: as above; details: Setaria faberi, 240 h, 0 to 100 scale (0 no effect, 100 complete control), approx. 10 d, read-out: Plant response rating, Foxtail, Giant; for pest or weed control at 125 g/ha: 125 g ai/ha; for pest or weed control at 500 g/ha: 500 g ai/ha
Outline: as §1

corn (Zea mays) = assay: as above; details: Zea mays, 240 h, 0 to 100 scale (0 no effect, 100 complete control), approx. 10 d; for Corn plant response rating (crop injury, 0 = no effect, 100 = complete kill) at 125 g/ha: 125 g ai/ha; for Corn plant response rating (crop injury, 0 = no effect, 100 = complete kill) at 500 g/ha: 500 g ai/ha
Outline: as §1

[8] = test system: barnyardgrass (Echinochloa crus-galli); assay: Test B flooded paddy test; details: Echinochloa crus-galli, 312 h, Flood, scale of 0 to 100, 0 is no effect, 100 is complete control, 13 to 15 d, read-out: Plant response rating, Barnyardgrass
Outline: (§2)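 Visual scores from 0 (no effect) to 100 (complete control) are relative to controls, assessed 13 to 15 d after treatment under greenhouse conditions. Treatment went into the paddy water of pots flooded 3 cm deep, with seedlings at the 2-leaf stage and flooding maintained.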

[9] = test system: ducksalad (Heteranthera limosa); assay: Test B flooded paddy test; details: Heteranthera limosa, 312 h, Flood, scale of 0 to 100, 0 is no effect, 100 is complete control, 13 to 15 d, read-out: Plant response rating, Ducksalad
Outline: as §2

[10] = test system: sedge, umbrella (small-flower umbrella sedge, Cyperus difformis); assay: Test B flooded paddy test; details: Cyperus difformis, 312 h, Flood, scale of 0 to 100, 0 is no effect, 100 is complete control, 13 to 15 d, read-out: Plant response rating, Sedge, Umbrella
Outline: as §2

rice (Oryza sativa) = assay: Test B flooded paddy test; details: Oryza sativa, 312 h, Flood, scale of 0 to 100, 0 is no effect, 100 is complete control, 13 to 15 d, read-out: Plant response rating, Rice
Outline: as §2

SMILES	pest or weed control at 125 g/ha ([1]; post-emergence, Postemergence) [%]	pest or weed control at 500 g/ha ([1]; post-emergence, Postemergence) [%]	pest or weed control at 125 g/ha ([1]; pre-emergence, Preemergence) [%]	pest or weed control at 500 g/ha ([1]; pre-emergence, Preemergence) [%]	pest or weed control at 125 g/ha ([2]; post-emergence, Postemergence) [%]	pest or weed control at 500 g/ha ([2]; post-emergence, Postemergence) [%]	pest or weed control at 125 g/ha ([2]; pre-emergence, Preemergence) [%]	pest or weed control at 500 g/ha ([2]; pre-emergence, Preemergence) [%]	plant injury at 125 g/ha ([3]; post-emergence, Postemergence) [%]	plant injury at 500 g/ha ([3]; post-emergence, Postemergence) [%]	plant injury at 125 g/ha ([3]; pre-emergence, Preemergence) [%]	plant injury at 500 g/ha ([3]; pre-emergence, Preemergence) [%]	pest or weed control at 125 g/ha ([4]; post-emergence, Postemergence) [%]	pest or weed control at 500 g/ha ([4]; post-emergence, Postemergence) [%]	pest or weed control at 125 g/ha ([4]; pre-emergence, Preemergence) [%]	pest or weed control at 500 g/ha ([4]; pre-emergence, Preemergence) [%]	pest or weed control at 125 g/ha ([5]; post-emergence, Postemergence) [%]	pest or weed control at 500 g/ha ([5]; post-emergence, Postemergence) [%]	pest or weed control at 125 g/ha ([5]; pre-emergence, Preemergence) [%]	pest or weed control at 500 g/ha ([5]; pre-emergence, Preemergence) [%]	further results
COc1cc(=O)n(-c2ccc(C(F)(F)F)cc2)nc1Cc1ccnc(C(F)(F)F)c1 [Compound 16, 5-methoxy-2-[4-(trifluoromethyl)phenyl]-6-[[2-(trifluoromethyl)-4-pyridinyl]methyl]-3(2H)-pyridazinone]	80	100	30	80	80	90	90	100	60	70	20	70	100	100	100	100	90	100	100	100	pest or weed control at 125 g/ha ([6]; post-emergence, Postemergence): 90%; pest or weed control at 500 g/ha ([6]; post-emergence, Postemergence): 100%; pest or weed control at 125 g/ha ([6]; pre-emergence, Preemergence): 80%; pest or weed control at 500 g/ha ([6]; pre-emergence, Preemergence): 80%; pest or weed control at 125 g/ha ([7]; post-emergence, Postemergence): 90%; pest or weed control at 500 g/ha ([7]; post-emergence, Postemergence): 90%; pest or weed control at 125 g/ha ([7]; pre-emergence, Preemergence): 100%; pest or weed control at 500 g/ha ([7]; pre-emergence, Preemergence): 100%; Corn plant response rating (crop injury, 0 = no effect, 100 = complete kill) at 125 g/ha (corn (Zea mays); post-emergence, Postemergence): 20%; Corn plant response rating (crop injury, 0 = no effect, 100 = complete kill) at 500 g/ha (corn (Zea mays); post-emergence, Postemergence): 80%; Corn plant response rating (crop injury, 0 = no effect, 100 = complete kill) at 125 g/ha (corn (Zea mays); pre-emergence, Preemergence): 40%; Corn plant response rating (crop injury, 0 = no effect, 100 = complete kill) at 500 g/ha (corn (Zea mays); pre-emergence, Preemergence): 70%; pest or weed control at 125 g/ha ([8]; 125 g ai/ha): 45%; pest or weed control at 125 g/ha ([9]; 125 g ai/ha): 20%; pest or weed control at 125 g/ha ([10]; 125 g ai/ha): 80%; plant injury at 125 g/ha (rice (Oryza sativa); 125 g ai/ha): 35%
CCOc1cc(=O)n(-c2ccc(F)cc2)nc1C(=O)c1ccnc(C(F)(F)F)c1 [Compound 22, 5-ethoxy-2-(4-fluorophenyl)-6-[[2-(trifluoromethyl)-4-pyridinyl]carbonyl]-3(2H)-pyridazinone]	20	50	40	100	20	100	20	80	60	90	10	40	100	100	100	100	60	100	100	100	pest or weed control at 125 g/ha ([6]; post-emergence, Postemergence): 40%; pest or weed control at 500 g/ha ([6]; post-emergence, Postemergence): 100%; pest or weed control at 125 g/ha ([6]; pre-emergence, Preemergence): 30%; pest or weed control at 500 g/ha ([6]; pre-emergence, Preemergence): 100%; pest or weed control at 125 g/ha ([7]; post-emergence, Postemergence): 60%; pest or weed control at 500 g/ha ([7]; post-emergence, Postemergence): 100%; pest or weed control at 125 g/ha ([7]; pre-emergence, Preemergence): 90%; pest or weed control at 500 g/ha ([7]; pre-emergence, Preemergence): 100%; Corn plant response rating (crop injury, 0 = no effect, 100 = complete kill) at 125 g/ha (corn (Zea mays); post-emergence, Postemergence): 50%; Corn plant response rating (crop injury, 0 = no effect, 100 = complete kill) at 500 g/ha (corn (Zea mays); post-emergence, Postemergence): 90%; Corn plant response rating (crop injury, 0 = no effect, 100 = complete kill) at 125 g/ha (corn (Zea mays); pre-emergence, Preemergence): 0%; Corn plant response rating (crop injury, 0 = no effect, 100 = complete kill) at 500 g/ha (corn (Zea mays); pre-emergence, Preemergence): 20%; pest or weed control at 250 g/ha ([8]; 250 g ai/ha): 10%; pest or weed control at 250 g/ha ([9]; 250 g ai/ha): 70%; pest or weed control at 250 g/ha ([10]; 250 g ai/ha): 80%; plant injury at 250 g/ha (rice (Oryza sativa); 250 g ai/ha): 10%
